Data as given in patent publication US10344060B2 (priority 2013, dated 2019).
Values joined by “and” are separate entries in the source; they are usually repeats but may differ in a detail not shown here. Equal values may be shown once. Read-outs that look alike come from different tables or passages of the source.

Tests used:
Assay in all cases: cell-based
[1] = target: T1, hNav1.7 (Homo sapiens, UniProt Q15858)
[2] = target: hNav1.5 (Homo sapiens, UniProt Q14524); settings: read-out: IC50 (μM) Nav1.5
hNav1.5, sequence (Q14524 whole entry): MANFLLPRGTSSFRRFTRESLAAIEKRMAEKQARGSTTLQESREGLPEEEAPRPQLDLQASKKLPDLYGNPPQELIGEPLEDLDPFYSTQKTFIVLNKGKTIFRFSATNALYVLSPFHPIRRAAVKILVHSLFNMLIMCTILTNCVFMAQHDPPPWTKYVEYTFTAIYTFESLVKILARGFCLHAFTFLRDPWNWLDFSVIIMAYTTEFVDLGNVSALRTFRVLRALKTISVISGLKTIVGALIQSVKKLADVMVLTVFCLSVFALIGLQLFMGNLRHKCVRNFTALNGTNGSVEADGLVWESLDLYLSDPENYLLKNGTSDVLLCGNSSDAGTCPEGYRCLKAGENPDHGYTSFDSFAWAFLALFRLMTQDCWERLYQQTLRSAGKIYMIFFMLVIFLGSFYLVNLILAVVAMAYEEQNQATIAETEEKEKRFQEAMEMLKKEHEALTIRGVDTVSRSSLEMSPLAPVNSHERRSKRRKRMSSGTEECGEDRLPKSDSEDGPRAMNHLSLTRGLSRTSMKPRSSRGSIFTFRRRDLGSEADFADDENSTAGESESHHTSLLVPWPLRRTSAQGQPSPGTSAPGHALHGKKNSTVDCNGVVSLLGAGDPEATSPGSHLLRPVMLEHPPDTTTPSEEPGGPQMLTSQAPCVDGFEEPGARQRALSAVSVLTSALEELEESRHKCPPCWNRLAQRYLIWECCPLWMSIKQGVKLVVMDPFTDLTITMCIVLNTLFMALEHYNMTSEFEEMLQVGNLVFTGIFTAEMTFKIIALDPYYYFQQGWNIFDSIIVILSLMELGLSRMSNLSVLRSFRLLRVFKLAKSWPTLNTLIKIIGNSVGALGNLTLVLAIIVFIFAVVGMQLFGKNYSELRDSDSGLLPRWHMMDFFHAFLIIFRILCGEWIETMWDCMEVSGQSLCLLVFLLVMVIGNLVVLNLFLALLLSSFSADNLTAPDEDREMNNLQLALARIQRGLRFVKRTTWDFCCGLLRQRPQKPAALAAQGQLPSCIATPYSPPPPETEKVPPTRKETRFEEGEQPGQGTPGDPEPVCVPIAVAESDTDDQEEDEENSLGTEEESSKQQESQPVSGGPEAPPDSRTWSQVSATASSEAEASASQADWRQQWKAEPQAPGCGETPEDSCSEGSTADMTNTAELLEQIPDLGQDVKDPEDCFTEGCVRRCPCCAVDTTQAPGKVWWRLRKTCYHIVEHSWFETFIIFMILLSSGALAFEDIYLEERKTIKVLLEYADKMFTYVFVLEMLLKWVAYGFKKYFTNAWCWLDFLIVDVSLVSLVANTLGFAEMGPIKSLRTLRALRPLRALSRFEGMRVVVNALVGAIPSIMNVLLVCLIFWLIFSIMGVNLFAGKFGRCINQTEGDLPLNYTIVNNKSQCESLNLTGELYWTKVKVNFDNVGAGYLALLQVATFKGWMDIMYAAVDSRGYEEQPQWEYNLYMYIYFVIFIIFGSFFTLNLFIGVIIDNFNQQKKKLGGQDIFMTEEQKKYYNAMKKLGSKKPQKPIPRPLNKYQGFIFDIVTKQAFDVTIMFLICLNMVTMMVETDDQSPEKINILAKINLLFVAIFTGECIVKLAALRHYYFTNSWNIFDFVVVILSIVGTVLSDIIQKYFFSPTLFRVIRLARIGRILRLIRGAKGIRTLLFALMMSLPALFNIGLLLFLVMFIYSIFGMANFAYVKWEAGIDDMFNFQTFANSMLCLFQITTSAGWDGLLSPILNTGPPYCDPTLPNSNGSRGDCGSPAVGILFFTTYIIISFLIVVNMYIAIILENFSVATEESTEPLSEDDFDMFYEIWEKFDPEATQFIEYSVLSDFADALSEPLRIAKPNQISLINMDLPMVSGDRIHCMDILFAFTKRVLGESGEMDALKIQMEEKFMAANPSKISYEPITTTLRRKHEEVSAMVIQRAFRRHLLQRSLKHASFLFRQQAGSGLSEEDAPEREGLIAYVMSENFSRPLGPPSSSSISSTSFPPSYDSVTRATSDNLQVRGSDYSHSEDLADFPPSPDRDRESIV

[3] = target: T1, hNav1.7; assay type: cell-based; settings: read-out: PX hNav1.7 Tonic IC50
[4] = target: T2, hNav1.4 (Homo sapiens, UniProt P35499); assay type: cell-based; settings: for IC50: IonWorks Quattro, read-out: IC50 (μM) Nav1.4
T2 sequence (P35499 whole entry): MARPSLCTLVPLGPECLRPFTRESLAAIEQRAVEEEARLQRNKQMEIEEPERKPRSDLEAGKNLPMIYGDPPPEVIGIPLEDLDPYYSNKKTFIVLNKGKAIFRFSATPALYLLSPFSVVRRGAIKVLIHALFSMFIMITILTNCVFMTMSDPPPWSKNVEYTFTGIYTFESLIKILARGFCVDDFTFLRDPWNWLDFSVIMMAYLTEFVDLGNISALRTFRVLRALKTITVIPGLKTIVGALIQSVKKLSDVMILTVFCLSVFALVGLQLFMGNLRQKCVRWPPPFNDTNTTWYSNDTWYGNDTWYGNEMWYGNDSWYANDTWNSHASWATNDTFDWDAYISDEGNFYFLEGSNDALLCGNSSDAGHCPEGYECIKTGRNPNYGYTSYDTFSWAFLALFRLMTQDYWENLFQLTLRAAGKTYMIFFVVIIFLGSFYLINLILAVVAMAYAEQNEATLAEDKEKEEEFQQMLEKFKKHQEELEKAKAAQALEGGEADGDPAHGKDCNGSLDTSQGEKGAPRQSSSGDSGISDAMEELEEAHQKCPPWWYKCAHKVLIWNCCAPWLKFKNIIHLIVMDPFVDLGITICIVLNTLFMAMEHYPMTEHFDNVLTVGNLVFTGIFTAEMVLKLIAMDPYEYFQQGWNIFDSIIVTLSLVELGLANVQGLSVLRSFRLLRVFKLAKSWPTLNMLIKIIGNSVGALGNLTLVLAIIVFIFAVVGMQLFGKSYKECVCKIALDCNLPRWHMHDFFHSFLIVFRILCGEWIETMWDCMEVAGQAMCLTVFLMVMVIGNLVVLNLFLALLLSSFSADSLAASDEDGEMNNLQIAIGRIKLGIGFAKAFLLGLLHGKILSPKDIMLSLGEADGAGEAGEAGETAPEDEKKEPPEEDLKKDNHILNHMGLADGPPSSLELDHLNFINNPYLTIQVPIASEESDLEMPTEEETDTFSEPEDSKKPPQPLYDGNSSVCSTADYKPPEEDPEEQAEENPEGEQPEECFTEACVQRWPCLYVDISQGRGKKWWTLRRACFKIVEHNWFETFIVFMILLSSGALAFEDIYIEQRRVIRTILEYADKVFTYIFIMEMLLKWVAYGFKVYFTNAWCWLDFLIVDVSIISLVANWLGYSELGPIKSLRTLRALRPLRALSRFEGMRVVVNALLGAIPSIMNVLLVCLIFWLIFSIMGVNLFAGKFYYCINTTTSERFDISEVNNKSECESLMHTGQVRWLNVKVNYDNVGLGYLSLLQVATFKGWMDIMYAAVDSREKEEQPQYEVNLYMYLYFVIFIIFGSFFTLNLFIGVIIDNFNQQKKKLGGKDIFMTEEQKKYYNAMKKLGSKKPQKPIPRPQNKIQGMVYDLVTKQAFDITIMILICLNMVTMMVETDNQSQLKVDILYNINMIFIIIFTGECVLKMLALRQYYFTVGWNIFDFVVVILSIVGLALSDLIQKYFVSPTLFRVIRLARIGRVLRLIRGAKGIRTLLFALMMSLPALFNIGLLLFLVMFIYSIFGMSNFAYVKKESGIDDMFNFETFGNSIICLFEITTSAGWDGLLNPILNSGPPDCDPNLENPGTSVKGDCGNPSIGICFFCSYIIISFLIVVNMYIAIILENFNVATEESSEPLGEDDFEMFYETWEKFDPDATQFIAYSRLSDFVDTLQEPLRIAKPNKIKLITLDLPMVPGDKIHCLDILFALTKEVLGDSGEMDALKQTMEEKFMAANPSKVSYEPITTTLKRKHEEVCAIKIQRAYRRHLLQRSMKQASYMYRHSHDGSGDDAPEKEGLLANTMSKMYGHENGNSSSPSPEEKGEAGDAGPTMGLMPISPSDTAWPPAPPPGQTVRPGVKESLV

[5] = target: hNav1.3 (Homo sapiens, UniProt Q9NY46); settings: IonWorks Quattro, read-out: IC50 (μM) Nav1.3
[6] = target: T2, hNav1.4; assay type: cell-based; settings: Table 12; for IC50: PatchXpress, tonic block, read-out: PX hNav1.4 Tonic IC50; for Nav1.4/Nav1.7: ratio of PX tonic IC50 values
[7] = target: hNav1.6 (Homo sapiens, UniProt Q9UQD0); assay type: cell-based; settings: Table 15; for Nav1.6/Nav1.7: ratio of PX tonic IC50 values; for IC50: read-out: PX hNav1.6 Tonic IC50
[8] = Table 12, PatchXpress, tonic block

Row | Structure (SMILES) | IC50 [3, 8] | IC50 [6] | Nav1.4/Nav1.7 [6] | Nav1.6/Nav1.7 [7] | IC50 [7] | other results
1 | CC[C@H](C)[C@H](NC(=O)[C@@H](NC(=O)[C@H](CCCCN)NC(=O)[C@H](CCCNC(=N)N)NC(=O)[C@@H]1CSSC[C@@H]2NC(=O)[C@H](C)NC(=O)[C@H](CCCNC(=N)N)NC(=O)[C@H](CCCCN)NC(=O)[C@H](CO)NC(=O)[C@H](CC(=O)O)NC(=O)[C@@H]3CSSC[C@H](NC(=O)[C@H](CCCNC(=N)N)NC(=O)[C@H](CC(C)C)NC(=O)CNC(=O)[C@H](CCC(=O)O)NC(=O)[C@H](CSSC[C@H](NC(=O)[C@@H](N)Cc4ccc(O)cc4)C(=O)N[C@@H](CCC(N)=O)C(=O)N[C@@H](CCCCN)C(=O)N[C@@H](Cc4c[nH]c5ccccc45)C(=O)N[C@@H](CCSC)C(=O)N[C@@H](Cc4c[nH]c5ccccc45)C(=O)N[C@@H]([C@@H](C)O)C(=O)N3)NC2=O)C(=O)N[C@@H](CCCCN)C(=O)N[C@@H](CC(C)C)C(=O)N[C@@H](Cc2c[nH]c3ccccc23)C(=O)N1)[C@@H](C)CC)C(=O)O [compound 1] | – | – | – | – | – | IC50 ([1]; read-out: IC50 (μM) Nav1.7): 0.17 µM; IC50 ([2]; IonWorks Quattro, Table 6): > 5 µM; IC50 ([3]; PatchXpress, tonic, Table 11): 13.1 nM
2 | CC[C@H](C)[C@H](NC(=O)[C@H](CCCNC(=N)N)NC(=O)[C@H](CCCCN)NC(=O)[C@H](CCCNC(=N)N)NC(=O)[C@@H]1CSSC[C@@H]2NC(=O)[C@H](C)NC(=O)[C@H](CCCNC(=N)N)NC(=O)[C@H](CCCCN)NC(=O)[C@H](CO)NC(=O)[C@H](CC(=O)O)NC(=O)[C@@H]3CSSC[C@H](NC(=O)[C@H](CCCNC(=N)N)NC(=O)[C@H](CC(C)C)NC(=O)CNC(=O)[C@H](CCC(=O)O)NC(=O)[C@H](CSSC[C@H](NC(=O)[C@@H](N)Cc4ccc(O)cc4)C(=O)N[C@@H](CCC(N)=O)C(=O)N[C@@H](CCCCN)C(=O)N[C@@H](Cc4c[nH]c5ccccc45)C(=O)N[C@@H](CCSC)C(=O)N[C@@H](Cc4c[nH]c5ccccc45)C(=O)N[C@@H]([C@@H](C)O)C(=O)N3)NC2=O)C(=O)N[C@@H](CCCCN)C(=O)N[C@@H](CC(C)C)C(=O)N[C@@H](Cc2c[nH]c3ccccc23)C(=O)N1)C(N)=O [compound 108] | – | – | – | – | – | IC50 ([2]; IonWorks Quattro, Table 6): 1.8 µM; IC50 ([4]; Table 6): 0.14 µM; IC50 ([5]; Table 6): 0.06 µM
3 | CC[C@H](C)[C@H](NC(=O)CNC(=O)[C@H](CCCCN)NC(=O)[C@H](CCCNC(=N)N)NC(=O)[C@@H]1CSSC[C@@H]2NC(=O)[C@H](C)NC(=O)[C@H](CCCNC(=N)N)NC(=O)[C@H](CCCCN)NC(=O)[C@H](CO)NC(=O)[C@H](CC(=O)O)NC(=O)[C@@H]3CSSC[C@H](NC(=O)[C@H](CCC(=O)O)NC(=O)[C@H](CC(C)C)NC(=O)CNC(=O)[C@H](CCC(=O)O)NC(=O)[C@H](CSSC[C@H](NC(=O)[C@@H](N)Cc4ccc(O)cc4)C(=O)N[C@@H](CCC(N)=O)C(=O)N[C@@H](CCCCN)C(=O)N[C@@H](Cc4c[nH]c5ccccc45)C(=O)N[C@@H](CCSC)C(=O)N[C@@H](Cc4c[nH]c5ccccc45)C(=O)N[C@@H]([C@@H](C)O)C(=O)N3)NC2=O)C(=O)N[C@@H](CCCCN)C(=O)N[C@@H](CC(C)C)C(=O)N[C@@H](Cc2c[nH]c3ccccc23)C(=O)N1)C(N)=O [compound 134] | – | – | – | – | – | Nav1.4/Nav1.7 ([1]; ratio of IonWorks Quattro IC50 values, Nav1.4 over Nav1.7): 17 and 13; IC50 [2]: 11.1 µM
4 | CC[C@H](C)[C@H](NC(=O)[C@@H](NC(=O)[C@H](CCCCN)NC(=O)[C@H](CCCNC(=N)N)NC(=O)[C@@H]1CSSC[C@@H]2NC(=O)[C@H](C)NC(=O)[C@H](CCCNC(=N)N)NC(=O)[C@H](CCCCN)NC(=O)[C@H](CO)NC(=O)[C@H](CC(=O)O)NC(=O)[C@@H]3CSSC[C@H](NC(=O)[C@H](CCC(=O)O)NC(=O)[C@H](CC(C)C)NC(=O)CNC(=O)[C@H](CCC(=O)O)NC(=O)[C@H](CSSC[C@H](NC(=O)[C@@H](N)Cc4ccc(O)cc4)C(=O)N[C@@H](CCC(N)=O)C(=O)N[C@@H](CCCCN)C(=O)N[C@@H](Cc4c[nH]c5ccccc45)C(=O)N[C@@H](CCSC)C(=O)N[C@@H](Cc4c[nH]c5ccccc45)C(=O)N[C@@H](Cc4cn(CCCOCCOCCOCCOCCOCCOCCOCCOCCOCCOCCN)nn4)C(=O)N3)NC2=O)C(=O)N[C@@H](CCCCN)C(=O)N[C@@H](CC(C)C)C(=O)N[C@@H](Cc2c[nH]c3ccccc23)C(=O)N1)[C@@H](C)CC)C(N)=O [compound 171] | – | – | – | – | – | IC50 ([2]; IonWorks Quattro, Table 9): 18.7 µM; IC50 ([4]; Table 9): > 5 µM; Nav1.4/Nav1.7 ([4]; ratio of IonWorks Quattro IC50 values, Table 9): 1; IC50 ([5]; Table 9): > 5 µM
5 | C#CC[C@H](N)C(=O)N[C@@H](Cc1ccc(O)cc1)C(=O)N[C@H]1CSSC[C@@H]2NC(=O)[C@@H]3CSSC[C@@H](C(=O)N[C@@H](CCCNC(=N)N)C(=O)N[C@@H](CCCCN)C(=O)N[C@@H](CCC(=O)O)C(=O)N[C@H](C(N)=O)[C@@H](C)CC)NC(=O)[C@H](Cc4c[nH]c5ccccc45)NC(=O)[C@H](CC(C)C)NC(=O)[C@H](CCCCN)NC(=O)[C@H](CSSC[C@H](NC(=O)[C@H]([C@@H](C)O)NC(=O)[C@H](Cc4c[nH]c5ccccc45)NC(=O)[C@H](CCCC)NC(=O)[C@H](Cc4c[nH]c5ccccc45)NC(=O)[C@H](CCCCN)NC(=O)[C@H](CCC(N)=O)NC1=O)C(=O)N[C@@H](CC(=O)O)C(=O)N[C@@H](CCC(=O)O)C(=O)N[C@@H](CCC(=O)O)C(=O)N[C@@H](CCCNC(=N)N)C(=O)N[C@@H](C)C(=O)N3)NC(=O)[C@H](CCCNC(=N)N)NC(=O)[C@H](CC(C)C)NC(=O)CNC(=O)[C@H](CCC(=O)O)NC2=O [compound 744] | 3.8 nM | 1420 nM | 374 | 217 | 825 nM | –
6 | C#CC[C@H](NC(=O)[C@@H](N)CCC(=O)O)C(=O)N[C@H]1CSSC[C@@H]2NC(=O)[C@@H]3CSSC[C@@H](C(=O)N[C@@H](CCCNC(=N)N)C(=O)N[C@@H](CCCCN)C(=O)N[C@@H](CCC(=O)O)C(=O)N[C@H](C(N)=O)[C@@H](C)CC)NC(=O)[C@H](Cc4c[nH]c5ccccc45)NC(=O)[C@H](CC(C)C)NC(=O)[C@H](CCCCN)NC(=O)[C@H](CSSC[C@H](NC(=O)[C@H]([C@@H](C)O)NC(=O)[C@H](Cc4c[nH]c5ccccc45)NC(=O)[C@H](CCCC)NC(=O)[C@H](Cc4c[nH]c5ccccc45)NC(=O)[C@H](CCCCN)NC(=O)[C@H](CCC(N)=O)NC1=O)C(=O)N[C@@H](CC(=O)O)C(=O)N[C@@H](CCC(=O)O)C(=O)N[C@@H](CCC(=O)O)C(=O)N[C@@H](CCCNC(=N)N)C(=O)N[C@@H](C)C(=O)N3)NC(=O)[C@H](CCCNC(=N)N)NC(=O)[C@H](CC(C)C)NC(=O)CNC(=O)[C@H](CCC(=O)O)NC2=O [compound 748] | 6.66 nM | 2150 nM | 323 | 410 | 2730 nM | –
7 | C#CC[C@H](NC(=O)[C@@H](N)CCC(=O)O)C(=O)N[C@H]1CSSC[C@@H]2NC(=O)[C@@H]3CSSC[C@@H](C(=O)N[C@@H](CCCNC(=N)N)C(=O)N[C@@H](CCCCN)C(=O)N[C@@H](CCC(=O)O)C(=O)N[C@H](C(N)=O)[C@@H](C)CC)NC(=O)[C@H](Cc4c[nH]c5ccccc45)NC(=O)[C@H](CC(C)C)NC(=O)[C@H](CCCCN)NC(=O)[C@H](CSSC[C@H](NC(=O)[C@H]([C@@H](C)O)NC(=O)[C@H](Cc4c[nH]c5ccccc45)NC(=O)[C@H](CCCC)NC(=O)[C@H](Cc4c[nH]c5ccccc45)NC(=O)[C@H](CCCCN)NC(=O)[C@H](CCC(N)=O)NC1=O)C(=O)N[C@@H](CC(=O)O)C(=O)N[C@@H](CCC(=O)O)C(=O)N[C@@H](CCCCN)C(=O)N[C@@H](CCCNC(=N)N)C(=O)N[C@@H](CCC(=O)O)C(=O)N3)NC(=O)[C@H](CCCNC(=N)N)NC(=O)[C@H](CC(C)C)NC(=O)CNC(=O)[C@H](CCC(=O)O)NC2=O [compound 750] | 2.91 nM | 1190 nM | 411 | >3442 | > 10000 nM | –
8 | C#CC[C@H](N)C(=O)N[C@@H](Cc1ccc(O)cc1)C(=O)N[C@H]1CSSC[C@@H]2NC(=O)[C@@H]3CSSC[C@@H](C(=O)N[C@@H](CCCNC(=N)N)C(=O)N[C@@H](CCCCN)C(=O)N[C@@H](CCC(=O)O)C(=O)N[C@H](C(N)=O)[C@@H](C)CC)NC(=O)[C@H](Cc4c[nH]c5ccccc45)NC(=O)[C@H](CC(C)C)NC(=O)[C@H](CCCCN)NC(=O)[C@H](CSSC[C@H](NC(=O)[C@H]([C@@H](C)O)NC(=O)[C@H](Cc4c[nH]c5ccccc45)NC(=O)[C@H](CCCC)NC(=O)[C@H](CCc4ccccc4)NC(=O)[C@H](CCCCN)NC(=O)[C@H](CCC(N)=O)NC1=O)C(=O)N[C@@H](CC(=O)O)C(=O)N[C@@H](CO)C(=O)N[C@@H](CCCCN)C(=O)N[C@@H](CCCNC(=N)N)C(=O)N[C@@H](C)C(=O)N3)NC(=O)[C@H](CCCNC(=N)N)NC(=O)[C@H](CC(C)C)NC(=O)CNC(=O)[C@H](CCC(=O)O)NC2=O [compound 844] | 0.599 nM | 258 nM | 431 | 1666 | – | IC50 ([3]; Table 15): 0.599 nM
